Measured values published in US20230114728A1 (Venatorx Pharmaceuticals, Inc., priority 2019, published 2023).
≈ marks a conversion by molar mass, not a printed value.

Columns and labels:
E. coli K12 PBP3 = biological target: T1, E. coli K12 PBP3 (Escherichia coli, UniProt P0AD68); test: biochemical; format: binding
T1 construct: made in house
Procedure, shortened: (§1)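 Fluorescence polarization (ex 490/em 520 nm) competition of inhibitors against Bocillin-FL at 0.1 μM, read up to 60 min. Final PBP levels: E. coli PBP3 1.5 μM; A. baumannii PBP2 2.5 μM, PBP3 0.2 μM in Tris pH 8.0/NaCl/glycerol/Tween 20; N. gonorrhoeae PBP2 […] in Hepes pH 8.0/NaCl/glycerol. EC50 = concentration halving PBP-bound Bocillin-FL.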

[1] = Bocillin-FL fluorescence polarization competition binding assay, A. baumannii PBP3; details: fluorescence polarization competition binding assay using Bocillin-FL; column 3; read-out: 4. baumannii PBP1a Potency
Procedure, shortened: as §1

N. gonorrhoeae WHO Z = test: Liquid broth MIC in Fastidious broth; format: cell-based; details: Neisseria gonorrhoeae, read-out: Minimum Inhibitory Concentration, N. gonorrhoeae WHO Z
Procedure, shortened: (§2)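 Strains bearing mosaic PBP2 grown 24 h on chocolate agar (36° C, 5% CO2), suspended in saline and added to 2-fold compound dilutions in Fastidious broth at 5×10^5 CFU/mL. After ~24 hours at 36° C with 5% CO2, MIC taken visually as lowest well with <10% growth relative to full growth.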

N. gonorrhoeae WHO Q = test: Liquid broth MIC in Fastidious broth; format: cell-based; details: Neisseria gonorrhoeae, read-out: Minimum Inhibitory Concentration, N. gonorrhoeae WHO Q
Procedure, shortened: as §2

T1 sequence (P0AD68 1-577): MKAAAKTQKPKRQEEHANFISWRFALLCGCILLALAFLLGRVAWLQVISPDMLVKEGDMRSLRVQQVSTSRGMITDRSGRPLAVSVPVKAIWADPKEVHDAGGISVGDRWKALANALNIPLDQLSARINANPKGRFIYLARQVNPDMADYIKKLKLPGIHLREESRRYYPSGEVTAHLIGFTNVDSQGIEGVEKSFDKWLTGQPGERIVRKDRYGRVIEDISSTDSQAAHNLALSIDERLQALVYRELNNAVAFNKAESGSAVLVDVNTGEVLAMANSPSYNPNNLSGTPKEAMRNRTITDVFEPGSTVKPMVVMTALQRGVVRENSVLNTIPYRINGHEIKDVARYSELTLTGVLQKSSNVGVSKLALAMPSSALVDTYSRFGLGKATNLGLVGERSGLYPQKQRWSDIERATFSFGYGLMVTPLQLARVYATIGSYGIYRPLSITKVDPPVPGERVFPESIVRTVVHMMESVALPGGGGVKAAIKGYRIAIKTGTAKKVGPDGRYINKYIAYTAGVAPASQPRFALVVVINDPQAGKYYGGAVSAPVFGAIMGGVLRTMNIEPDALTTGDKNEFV

SMILES | EC50 (E. coli K12 PBP3) [µM] | EC50 [1] [µM] | MIC (N. gonorrhoeae WHO Z) [µg/mL] | MIC (N. gonorrhoeae WHO Q) [µg/mL]
NCCN1CCN(C(=O)N[C@@H](C(=O)N[C@H]2Cc3ccc(F)c(C(=O)O)c3OB2O)c2c(F)cc(O)c(O)c2Cl)C(=O)C1=O (single isomer, unassigned) [Example 26] | < 30 | 30 to 100 |  | 
NCCCN1CCN(C(=O)N[C@@H](C(=O)N[C@H]2Cc3ccc(F)c(C(=O)O)c3OB2O)c2c(F)cc(O)c(O)c2Cl)C(=O)C1=O (single isomer, unassigned) [Example 27] | < 30 | 30 to 100 |  | 
O=C(O)c1c(F)ccc2c1OB(O)[C@@H](NC(=O)[C@H](NC(=O)N1CCNC1=O)c1c(F)cc(O)c(O)c1Cl)C2 (single isomer, unassigned) [Example 34] | < 30 | > 100 |  | 
CS(=O)(=O)N1CCN(C(=O)N[C@@H](C(=O)N[C@H]2Cc3ccc(F)c(C(=O)O)c3OB2O)c2c(F)cc(O)c(O)c2Cl)C1=O (single isomer, unassigned) [Example 35] | < 30 | 30 to 100 |  | 
NCCN1CCN(C(=O)N[C@@H](C(=O)N[C@H]2Cc3ccc(F)c(C(=O)O)c3OB2O)c2c(F)cc(O)c(O)c2F)C(=O)C1=O (single isomer, unassigned) [Example 40] | < 30 | > 100 |  | 
NCCCN1CCN(C(=O)N[C@@H](C(=O)N[C@H]2Cc3ccc(F)c(C(=O)O)c3OB2O)c2c(F)cc(O)c(O)c2F)C(=O)C1=O (single isomer, unassigned) [Example 41] | < 30 | 30 to 100 |  | 
CCN1CCN(C(=O)NC(C(=O)N[C@H]2Cc3cccc(C(=O)O)c3OB2O)c2cccc(NS(C)(=O)=O)c2)C(=O)C1=O (stereo partly drawn) [Example 76, (3R)-3-(2-(4-ethyl-2,3-dioxopiperazine-1-carboxamido)-2-(3-(methylsulfonamido)phenyl)acetamido)-2-hydroxy-3,4-dihydro-2H-benzo[e][1,2]oxaborinine-8-carboxylic acid] | < 30 |  | > 64 | > 64
CCN1CCN(C(=O)NC(C(=O)N[C@H]2Cc3cccc(C(=O)O)c3OB2O)c2cc(O)ccc2O)C(=O)C1=O (stereo partly drawn) [Example 77, (3R)-3-(2-(2,5-dihydroxyphenyl)-2-(4-ethyl-2,3-dioxopiperazine-1-carboxamido)acetamido)-2-hydroxy-3,4-dihydro-2H-benzo[e][1,2]oxaborinine-8-carboxylic acid] | 30 to 500 |  | > 64 | > 64
N=C(N)NCCN1CCN(C(=O)NC(C(=O)N[C@H]2Cc3ccc(F)c(C(=O)O)c3OB2O)c2ccc(C(=O)O)c(F)c2)C(=O)C1=O (stereo partly drawn) [Example 78, (3R)-3-(2-(4-carboxy-3-fluorophenyl)-2-(4-(2-guanidinoethyl)-2,3-dioxopiperazine-1-carboxamido)acetamido)-7-fluoro-2-hydroxy-3,4-dihydro-2H-benzo[e][1,2]oxaborinine-8-carboxylic acid] | 30 to 500 |  | 16 to 32 (≈ 24.8 to 49.6 µM) | > 64
NCCN1CCN(C(=O)NC(C(=O)N[C@H]2Cc3cccc(C(=O)O)c3OB2O)c2cc(Cl)c(O)cc2F)C(=O)C1=O (stereo partly drawn) [Example 87, (3R)-3-(2-(4-(2-aminoethyl)-2,3-dioxopiperazine-1-carboxamido)-2-(5-chloro-2-fluoro-4-hydroxyphenyl)acetamido)-2-hydroxy-3,4-dihydro-2H-benzo[e][1,2]oxaborinine-8-carboxylic acid] | < 30 |  | > 64 | > 64
NCCN1CCN(C(=O)N[C@@H](C(=O)N[C@H]2Cc3cccc(C(=O)O)c3OB2O)c2cc(Cl)c(O)cc2Cl)C(=O)C1=O [Example 90, (R)-3-((R)-2-(4-(2-aminoethyl)-2,3-dioxopiperazine-1-carboxamido)-2-(2,5-dichloro-4-hydroxyphenyl)acetamido)-2-hydroxy-3,4-dihydro-2H-benzo[e][1,2]oxaborinine-8-carboxylic acid] | < 30 |  | > 64 | > 64
NCCN1CCN(C(=O)NC(C(=O)N[C@H]2Cc3cccc(C(=O)O)c3OB2O)c2cc(F)c(O)cc2F)C(=O)C1=O (stereo partly drawn) [Example 93, (3R)-3-(2-(4-(2-aminoethyl)-2,3-dioxopiperazine-1-carboxamido)-2-(2,5-difluoro-4-hydroxyphenyl)acetamido)-2-hydroxy-3,4-dihydro-2H-benzo[e][1,2]oxaborinine-8-carboxylic acid] | < 30 |  | > 64 | > 64
NCCN1CCN(C(=O)NC(C(=O)N[C@H]2Cc3cccc(C(=O)O)c3OB2O)c2c(F)cc(O)cc2Cl)C(=O)C1=O (stereo partly drawn) [Example 94, (3R)-3-(2-(4-(2-aminoethyl)-2,3-dioxopiperazine-1-carboxamido)-2-(2-chloro-6-fluoro-4-hydroxyphenyl)acetamido)-2-hydroxy-3,4-dihydro-2H-benzo[e][1,2]oxaborinine-8-carboxylic acid] | < 30 |  | > 64 | > 64
CCN1CCN(C(=O)NC(C(=O)N[C@H]2Cc3cccc(C(=O)O)c3OB2O)c2c(F)cc(O)cc2Cl)C(=O)C1=O (stereo partly drawn) [Example 95, (3R)-3-(2-(2-chloro-6-fluoro-4-hydroxyphenyl)-2-(4-ethyl-2,3-dioxopiperazine-1-carboxamido)acetamido)-2-hydroxy-3,4-dihydro-2H-benzo[e][1,2]oxaborinine-8-carboxylic acid] | < 30 |  | 16 to 32 (≈ 27.7 to 55.5 µM) | 16 to 32 (≈ 27.7 to 55.5 µM)
CCN1CCN(C(=O)NC(C(=O)N[C@H]2Cc3cccc(C(=O)O)c3OB2O)c2cccc(NC(=O)c3cncnc3)c2)C(=O)C1=O (stereo partly drawn) [Example 96, (3R)-3-(2-(4-ethyl-2,3-dioxopiperazine-1-carboxamido)-2-(3-(pyrimidine-5-carboxamido)phenyl)acetamido)-2-hydroxy-3,4-dihydro-2H-benzo[e][1,2]oxaborinine-8-carboxylic acid] | 30 to 500 |  | > 64 | > 64
CCN1CCN(C(=O)NC(C(=O)N[C@H]2Cc3cccc(C(=O)O)c3OB2O)c2cccc(NC(=O)c3cccnc3)c2)C(=O)C1=O (stereo partly drawn) [Example 97, (3R)-3-(2-(4-ethyl-2,3-dioxopiperazine-1-carboxamido)-2-(3-(nicotinamido)phenyl)acetamido)-2-hydroxy-3,4-dihydro-2H-benzo[e][1,2]oxaborinine-8-carboxylic acid] | < 30 |  | > 64 | > 64
CCN1CCN(C(=O)NC(C(=O)N[C@H]2Cc3cccc(C(=O)O)c3OB2O)c2cccc(NS(N)(=O)=O)c2)C(=O)C1=O (stereo partly drawn) [Example 98, (3R)-3-(2-(4-ethyl-2,3-dioxopiperazine-1-carboxamido)-2-(3-(sulfamoylamino)phenyl)acetamido)-2-hydroxy-3,4-dihydro-2H-benzo[e][1,2]oxaborinine-8-carboxylic acid] | < 30 |  | 16 to 32 (≈ 26.6 to 53.1 µM) | 16 to 32 (≈ 26.6 to 53.1 µM)
CCN1CCN(C(=O)NC(C(=O)N[C@H]2Cc3cccc(C(=O)O)c3OB2O)c2cccc(S(N)(=O)=O)c2)C(=O)C1=O (stereo partly drawn) [Example 99, (3R)-3-(2-(4-ethyl-2,3-dioxopiperazine-1-carboxamido)-2-(3-sulfamoylphenyl)acetamido)-2-hydroxy-3,4-dihydro-2H-benzo[e][1,2]oxaborinine-8-carboxylic acid] | 30 to 500 |  | 16 to 32 (≈ 27.2 to 54.5 µM) | 16 to 32 (≈ 27.2 to 54.5 µM)
